Reference: PubChem BioAssay AID1963441 (Molecular Pharmacology Branch, DTP, NCI, 2024)

Tested on: NCI-H1876 complex spheroid growth, % test/control
Assay: Anticancer human tumor NCI-H1876 cell line growth inhibition [Asc];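 note: compound exposure lasted 7 days starting three days after seeding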;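 for viability, T/C: 100% = DMSO vehicle control wells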
Settings: for IC50: curve of first compound; for viability, T/C: stronger effect = lower value
Outline: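 Tumor cells were grown as complex spheroids with human endothelial cells (HUVEC) and human mesenchymal stem cells as stroma. Agents were tested alone and in combination, in half-log steps down from the clinical Cmax, or from 10 microM where Cmax was unknown.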

[1] = second compound 0.0316 µM, first compound 0.0316 µM
[2] = second compound 0.0316 µM, first compound 0.1 µM
[3] = second compound 0.0316 µM, first compound 0.316 µM
[4] = second compound 0.0316 µM, first compound 1 µM
[5] = second compound 0.1 µM, first compound 0.0316 µM
[6] = second compound 0.1 µM, first compound 0.1 µM
[7] = second compound 0.1 µM, first compound 0.316 µM
[8] = second compound 0.1 µM, first compound 1 µM
[9] = second compound 0.316 µM, first compound 0.0316 µM
[10] = second compound 0.316 µM, first compound 0.1 µM
[11] = second compound 0.316 µM, first compound 0.316 µM
[12] = second compound 0.316 µM, first compound 1 µM
[13] = second compound 1 µM, first compound 0.0316 µM
[14] = second compound 1 µM, first compound 0.1 µM
[15] = second compound 1 µM, first compound 0.316 µM
[16] = second compound 1 µM, first compound 1 µM
[17] = second compound 3.16 µM, first compound 0.0316 µM
[18] = second compound 3.16 µM, first compound 0.1 µM
[19] = second compound 3.16 µM, first compound 0.316 µM
[20] = second compound 3.16 µM, first compound 1 µM
[21] = second compound 10 µM, first compound 0.0316 µM
[22] = second compound 10 µM, first compound 0.1 µM
[23] = second compound 10 µM, first compound 0.316 µM
[24] = second compound 10 µM, first compound 1 µM

Which results are given for C=CC(=O)N1CCN(c2nc(=O)n(-c3c(C)ccnc3C(C)C)c3nc(-c4c(O)cccc4F)c(F)cc23)C(C)C1 (centres undefined) + Cc1c(S(C)(=O)=O)c(-c2cc(F)cc(N3CCN(c4ccc(NS(=O)(=O)c5ccc(NC(CCN6CCC(C(=O)OCCCP(=O)(O)O)CC6)CSc6ccccc6)c(S(=O)(=O)C(F)(F)F)c5)cc4)CC3)c2)c(-c2ccc(Cl)cc2)n1C(C)C?
IC50 (second compound 0.0316 µM): > 10000 nM; IC50 (second compound 0.1 µM): > 10000 nM; IC50 (second compound 0.316 µM): > 10000 nM; IC50 (second compound 1 µM): > 10000 nM; IC50 (second compound 3.16 µM): > 10000 nM; IC50 (second compound 10 µM): > 10000 nM; viability, T/C [1]: 91%; viability, T/C [2]: 89.5%; viability, T/C [3]: 107%; viability, T/C [4]: 95.2%; viability, T/C (second compound 0.0316 µM, first compound 3.16 µM): 103%; viability, T/C (second compound 0.0316 µM, first compound 10 µM): 109%; viability, T/C [5]: 85.7%; viability, T/C [6]: 99.6%; viability, T/C [7]: 101%; viability, T/C [8]: 106%; viability, T/C (second compound 0.1 µM, first compound 3.16 µM): 108%; viability, T/C (second compound 0.1 µM, first compound 10 µM): 107%; viability, T/C [9]: 91.1%; viability, T/C [10]: 114%; viability, T/C [11]: 97.6%; viability, T/C [12]: 103%; viability, T/C (second compound 0.316 µM, first compound 3.16 µM): 109%; viability, T/C (second compound 0.316 µM, first compound 10 µM): 104%; viability, T/C [13]: 105%; viability, T/C [14]: 99.4%; viability, T/C [15]: 111%; viability, T/C [16]: 98.6%; viability, T/C (second compound 1 µM, first compound 3.16 µM): 110%; viability, T/C (second compound 1 µM, first compound 10 µM): 114%; viability, T/C [17]: 96.4%; viability, T/C [18]: 95.3%; viability, T/C [19]: 102%; viability, T/C [20]: 97.8%; viability, T/C (second compound 3.16 µM, first compound 3.16 µM): 114%; viability, T/C (second compound 3.16 µM, first compound 10 µM): 96.7%; viability, T/C [21]: 99.2%; viability, T/C [22]: 96.5%; viability, T/C [23]: 99.6%; viability, T/C [24]: 116%; viability, T/C (second compound 10 µM, first compound 3.16 µM): 106%; viability, T/C (second compound 10 µM, first compound 10 µM): 95.1%

COc1c(OCCCN2CCOCC2)ccc2c3n(c(=NC(=O)c4cnc(N)nc4)nc12)CCN3 + Cc1c(S(C)(=O)=O)c(-c2cc(F)cc(N3CCN(c4ccc(NS(=O)(=O)c5ccc(NC(CCN6CCC(C(=O)OCCCP(=O)(O)O)CC6)CSc6ccccc6)c(S(=O)(=O)C(F)(F)F)c5)cc4)CC3)c2)c(-c2ccc(Cl)cc2)n1C(C)C was tested. Which IC50 (second compound 0.0316 µM) did it give?
The IC50 was 243 nM.

And the IC50 (second compound 0.1 µM)?
The IC50 was 225 nM.

And the IC50 (second compound 0.316 µM)?
Its IC50 is 207 nM.

What about the IC50 (second compound 1 µM) of the same compound?
Its IC50 is 149 nM.

And the IC50 (second compound 3.16 µM)?
Its IC50 is 118 nM.

And the IC50 (second compound 10 µM)?
Its IC50 is 102 nM.

What about the viability, T/C (second compound 0.0316 µM, first compound 0.00316 µM) of the same compound?
The viability, T/C was 94.3%.

What about the viability, T/C (second compound 0.0316 µM, first compound 0.01 µM) of the same compound?
The viability, T/C was 88%.

What about the viability, T/C [1] of the same compound?
Its viability, T/C is 91.3%.

What about the viability, T/C [2] of the same compound?
Its viability, T/C is 62.4%.

What about the viability, T/C [3] of the same compound?
Its viability, T/C is 49.3%.

And the viability, T/C [4]?
The viability, T/C was 35.9%.

And the viability, T/C (second compound 0.1 µM, first compound 0.00316 µM)?
Its viability, T/C is 93.2%.

And the viability, T/C (second compound 0.1 µM, first compound 0.01 µM)?
Its viability, T/C is 88%.

What about the viability, T/C [5] of the same compound?
The viability, T/C was 88.2%.

And the viability, T/C [6]?
The viability, T/C was 63.2%.

What about the viability, T/C [7] of the same compound?
Its viability, T/C is 45.4%.

What about the viability, T/C [8] of the same compound?
Its viability, T/C is 29.6%.

What about the viability, T/C (second compound 0.316 µM, first compound 0.00316 µM) of the same compound?
Its viability, T/C is 94.3%.

What about the viability, T/C (second compound 0.316 µM, first compound 0.01 µM) of the same compound?
Its viability, T/C is 94.4%.

And the viability, T/C [9]?
The viability, T/C was 87.6%.

And the viability, T/C [10]?
Its viability, T/C is 62.2%.

What about the viability, T/C [11] of the same compound?
The viability, T/C was 43.2%.

What about the viability, T/C [12] of the same compound?
The viability, T/C was 20.1%.

What about the viability, T/C (second compound 1 µM, first compound 0.00316 µM) of the same compound?
Its viability, T/C is 98.5%.

And the viability, T/C (second compound 1 µM, first compound 0.01 µM)?
Its viability, T/C is 94.7%.

And the viability, T/C [13]?
The viability, T/C was 82.5%.

What about the viability, T/C [14] of the same compound?
The viability, T/C was 57.3%.

What about the viability, T/C [15] of the same compound?
Its viability, T/C is 35%.

And the viability, T/C [16]?
Its viability, T/C is 18.7%.

And the viability, T/C (second compound 3.16 µM, first compound 0.00316 µM)?
Its viability, T/C is 101%.

What about the viability, T/C (second compound 3.16 µM, first compound 0.01 µM) of the same compound?
The viability, T/C was 84.7%.

And the viability, T/C [17]?
The viability, T/C was 77.9%.

And the viability, T/C [18]?
Its viability, T/C is 52.8%.

And the viability, T/C [19]?
The viability, T/C was 29.2%.

What about the viability, T/C [20] of the same compound?
The viability, T/C was 10.7%.

And the viability, T/C (second compound 10 µM, first compound 0.00316 µM)?
The viability, T/C was 96.7%.

And the viability, T/C (second compound 10 µM, first compound 0.01 µM)?
The viability, T/C was 90.3%.

And the viability, T/C [21]?
The viability, T/C was 74.5%.

What about the viability, T/C [22] of the same compound?
Its viability, T/C is 48.4%.

And the viability, T/C [23]?
Its viability, T/C is 28.3%.

And the viability, T/C [24]?
The viability, T/C was 8.91%.
